{"source": "paper PMC11768653", "about": "“Characterization of the Phosphotransferase from Bacillus subtilis 1101 That Is Responsible for the Biotransformation of Zearalenone” (Toxins, 2025)", "biological_target": "T1, ZPH1101 (Bacillus subtilis, UniProt O34796)", "T1 construct": "gene yvkC; full-length zph1101 in pET29a, N-terminal 6xHis, E. coli BL21(DE3), Ni-NTA, 90 kDa", "T1 sequence (O34796 whole entry)": "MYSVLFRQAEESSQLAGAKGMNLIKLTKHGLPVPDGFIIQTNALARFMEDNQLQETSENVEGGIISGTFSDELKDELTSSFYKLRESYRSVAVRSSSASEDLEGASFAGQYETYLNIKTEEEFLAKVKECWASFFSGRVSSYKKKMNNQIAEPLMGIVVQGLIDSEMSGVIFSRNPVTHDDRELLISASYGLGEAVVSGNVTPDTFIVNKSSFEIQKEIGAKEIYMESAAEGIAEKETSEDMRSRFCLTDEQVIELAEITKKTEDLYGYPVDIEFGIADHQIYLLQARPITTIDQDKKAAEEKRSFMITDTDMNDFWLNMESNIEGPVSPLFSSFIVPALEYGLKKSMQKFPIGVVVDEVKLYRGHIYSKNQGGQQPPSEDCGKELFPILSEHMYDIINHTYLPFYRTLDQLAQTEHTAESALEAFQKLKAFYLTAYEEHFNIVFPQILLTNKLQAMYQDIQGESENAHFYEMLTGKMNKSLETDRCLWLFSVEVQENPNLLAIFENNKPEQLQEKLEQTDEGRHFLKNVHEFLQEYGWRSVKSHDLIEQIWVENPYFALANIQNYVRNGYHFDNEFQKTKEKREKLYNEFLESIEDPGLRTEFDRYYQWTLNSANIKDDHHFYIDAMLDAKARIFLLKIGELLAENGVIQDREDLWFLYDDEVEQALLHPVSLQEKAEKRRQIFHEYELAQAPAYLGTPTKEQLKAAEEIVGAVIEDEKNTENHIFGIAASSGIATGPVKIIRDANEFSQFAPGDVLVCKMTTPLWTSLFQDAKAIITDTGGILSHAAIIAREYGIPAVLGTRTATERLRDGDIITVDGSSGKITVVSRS", "assay": "HPLC of residual ZEA, Michaelis-Menten fit", "format": "biochemical", "conditions": "ATP, Mg2+; pH 8.0, 45 °C", "description": "HPLC of residual ZEA, Michaelis-Menten fit on ZPH1101 | Michaelis constant (Km), and catalytic constant (kcat) were calculated through fitting to be", "data": [{"smiles": "C[C@H]1CCCC(=O)CCC/C=C/c2cc(O)cc(O)c2C(=O)O1", "note": "[zearalenone]", "values": [{"measurement": "Km", "value": 18.2, "unit": "µM"}]}]}
